PubChem BioAssay AID256 (DTP/NCI, 2004)
Values joined by “and” are separate entries in the source; they are usually repeats but may differ in a detail not shown here. Equal entries are not always repeated. Inconclusive results and toxic doses are left out.

Test system: CD2F1 mice, L1210 leukemia ip, survival T/C
Assay: NCI In Vivo Anticancer Drug Screen. Data for tumor model L1210 Leukemia (intraperitoneal) in CD2F1 (CDF1) mice
Details: higher = longer survival
Procedure, shortened: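 Antitumor effect is scored in animals hosting a serially transplanted tumor. Values compare compound-dosed animals against vehicle-only controls as a simple quotient.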

[1] = endpoint: mean survival time, dose: 100.0 mg/kg/injection, schedule: Q01DX001 (ip), vehicle: saline with Tween-80
[2] = endpoint: mean survival time, dose: 200.0 mg/kg/injection, schedule: Q01DX001 (ip), vehicle: saline with Tween-80
[3] = endpoint: mean survival time, dose: 400.0 mg/kg/injection, schedule: Q01DX001 (ip), vehicle: saline with Tween-80
[4] = endpoint: mean survival time, dose: 100.0 mg/kg/injection, schedule: Q04DX003 (ip), vehicle: saline with Tween-80
[5] = endpoint: mean survival time, dose: 200.0 mg/kg/injection, schedule: Q04DX003 (ip), vehicle: saline with Tween-80
[6] = endpoint: mean survival time, dose: 400.0 mg/kg/injection, schedule: Q04DX003 (ip), vehicle: saline with Tween-80
[7] = endpoint: mean survival time, dose: 50.0 mg/kg/injection, schedule: Q01DX009 (ip), vehicle: saline
[8] = endpoint: mean survival time, dose: 100.0 mg/kg/injection, schedule: Q01DX009 (ip), vehicle: saline
[9] = endpoint: mean survival time, dose: 12.5 mg/kg/injection, schedule: Q01DX009 (ip), vehicle: saline with Tween-80
[10] = endpoint: mean survival time, dose: 100.0 mg/kg/injection, schedule: Q01DX001 (ip), vehicle: saline
[11] = endpoint: mean survival time, dose: 200.0 mg/kg/injection, schedule: Q01DX001 (ip), vehicle: saline
[12] = endpoint: mean survival time, dose: 400.0 mg/kg/injection, schedule: Q01DX001 (ip), vehicle: saline
[13] = endpoint: mean survival time, dose: 100.0 mg/kg/injection, schedule: Q01DX009 (ip), vehicle: saline with Tween-80
[14] = endpoint: mean survival time, dose: 200.0 mg/kg/injection, schedule: Q01DX009 (ip), vehicle: saline with Tween-80

## O=C(Nc1ccccc1)c1c(O)[nH]c(=S)[nH]c1=O
endpoint: median survival time, dose: 6.2 mg/kg/injection, schedule: Q01DX005 (iv), vehicle: other
  T/C: 124 % of control
endpoint: median survival time, dose: 6.2 mg/kg/injection, schedule: Q01DX005 (iv), vehicle: saline with Tween-80
  T/C: 124 % of control
endpoint: median survival time, dose: 6.25 mg/kg/injection, schedule: Q01DX009 (ip), vehicle: saline with Tween-80
  T/C: 116 % of control
endpoint: median survival time, dose: 12.5 mg/kg/injection, schedule: Q01DX005 (iv), vehicle: other
  T/C: 124 % of control
endpoint: median survival time, dose: 12.5 mg/kg/injection, schedule: Q01DX005 (iv), vehicle: saline with Tween-80
  T/C: 124 % of control
endpoint: median survival time, dose: 20.0 mg/kg/injection, schedule: Q01DX009 (ip), vehicle: saline with Tween-80
  T/C: 119 % of control
endpoint: median survival time, dose: 25.0 mg/kg/injection, schedule: Q01DX005 (iv), vehicle: other
  T/C: 158 % of control
endpoint: median survival time, dose: 25.0 mg/kg/injection, schedule: Q01DX009 (ip), vehicle: other
  T/C: 197 % of control
endpoint: median survival time, dose: 25.0 mg/kg/injection, schedule: Q01DX009 (ip), vehicle: water
  T/C: 124 % of control
endpoint: median survival time, dose: 30.0 mg/kg/injection, schedule: Q01DX009 (ip), vehicle: saline with Tween-80
  T/C: 162 % of control
endpoint: median survival time, dose: 44.0 mg/kg/injection, schedule: Q01DX009 (ip), vehicle: saline with Tween-80
  T/C: 157 % of control and 168 % of control
endpoint: median survival time, dose: 50.0 mg/kg/injection, schedule: Q01DX009 (ip), vehicle: other
  T/C: 114 % of control
endpoint: median survival time, dose: 50.0 mg/kg/injection, schedule: Q01DX009 (ip), vehicle: water
  T/C: 204 % of control
endpoint: median survival time, dose: 67.0 mg/kg/injection, schedule: Q01DX009 (ip), vehicle: saline with Tween-80
  T/C: 182 % of control and 192 % of control

## O=C(O)C[As](=O)(O)O
endpoint: mean survival time, dose: 15.0 mg/kg/injection, schedule: Q01DX009 (ip), vehicle: saline
  T/C: 100 % of control
endpoint: mean survival time, dose: 30.0 mg/kg/injection, schedule: Q01DX009 (ip), vehicle: saline
  T/C: 108 % of control
endpoint: mean survival time, dose: 60.0 mg/kg/injection, schedule: Q01DX009 (ip), vehicle: saline
  T/C: 91 % of control

## CC(=O)NC(CC(C)C)C(=O)O.CC(=O)NC(CC(C)C)C(=O)O.[NH-]C1CCCCC1[NH-].[Pt+2] (configuration not stated)
endpoint: median survival time, dose: 3.12 mg/kg/injection, schedule: Q04DX003 (ip), vehicle: saline
  T/C: 97 % of control
endpoint: median survival time, dose: 6.25 mg/kg/injection, schedule: Q04DX003 (ip), vehicle: saline
  T/C: 100 % of control
endpoint: median survival time, dose: 12.5 mg/kg/injection, schedule: Q04DX003 (ip), vehicle: saline
  T/C: 97 % of control
endpoint: median survival time, dose: 25.0 mg/kg/injection, schedule: Q04DX003 (ip), vehicle: saline
  T/C: 100 % of control
endpoint: median survival time, dose: 50.0 mg/kg/injection, schedule: Q04DX003 (ip), vehicle: saline
  T/C: 104 % of control
endpoint: median survival time, dose: 100.0 mg/kg/injection, schedule: Q04DX003 (ip), vehicle: saline
  T/C: 105 % of control
endpoint: median survival time, dose: 200.0 mg/kg/injection, schedule: Q04DX003 (ip), vehicle: saline
  T/C: 108 % of control

## CCCCCCCCCCCCCCCCOc1ccc(C(=O)CC(=O)OC)cc1
[1]
  T/C: 86 % of control
[2]
  T/C: 89 % of control
[3]
  T/C: 91 % of control

## O=C1OC(c2ccc(Cl)cc2)=N/C1=C\c1ccccc1
endpoint: mean survival time, dose: 100.0 mg/kg/injection, schedule: Q01DX009 (ip), vehicle: acetone
  T/C: 97 % of control
endpoint: mean survival time, dose: 200.0 mg/kg/injection, schedule: Q01DX009 (ip), vehicle: acetone
  T/C: 101 % of control

## O=C(O)CSc1nc(-c2ccccc2)c(-c2ccccc2)n1-c1ccccn1
endpoint: mean survival time, dose: 12.5 mg/kg/injection, schedule: Q01DX009 (ip), vehicle: water
  T/C: 96 % of control and 97 % of control
endpoint: mean survival time, dose: 25.0 mg/kg/injection, schedule: Q01DX009 (ip), vehicle: water
  T/C: 91 % of control and 100 % of control
endpoint: mean survival time, dose: 50.0 mg/kg/injection, schedule: Q01DX009 (ip), vehicle: water
  T/C: 96 % of control and 102 % of control
endpoint: mean survival time, dose: 100.0 mg/kg/injection, schedule: Q01DX009 (ip), vehicle: water
  T/C: 100 % of control and 102 % of control

## CC12CCC(C(=O)C1=O)C2(C)C (configuration not stated)
[4]
  T/C: 102 % of control
[5]
  T/C: 94 % of control
[6]
  T/C: 102 % of control

## N#CCC(=O)NN
endpoint: mean survival time, dose: 100.0 mg/kg/injection, schedule: Q04DX003 (ip), vehicle: saline
  T/C: 103 % of control
endpoint: mean survival time, dose: 200.0 mg/kg/injection, schedule: Q04DX003 (ip), vehicle: saline
  T/C: 108 % of control

## CC1(C)COCN1COCCOCN1COCC1(C)C
endpoint: mean survival time, dose: 6.25 mg/kg/injection, schedule: Q01DX009 (ip), vehicle: saline
  T/C: 97 % of control and 98 % of control
endpoint: mean survival time, dose: 12.5 mg/kg/injection, schedule: Q01DX009 (ip), vehicle: saline
  T/C: 100 % of control and 101 % of control
endpoint: mean survival time, dose: 25.0 mg/kg/injection, schedule: Q01DX009 (ip), vehicle: saline
  T/C: 105 % of control and 107 % of control
[7]
  T/C: 106 % of control and 107 % of control
[8]
  T/C: 95 % of control and 105 % of control

## NC(=O)C(CC(=O)OCc1ccccc1)NC(=O)OCc1ccccc1 (configuration not stated)
endpoint: mean survival time, dose: 100.0 mg/kg/injection, schedule: Q04DX003 (ip), vehicle: saline + alcohol
  T/C: 97 % of control
endpoint: mean survival time, dose: 200.0 mg/kg/injection, schedule: Q04DX003 (ip), vehicle: saline + alcohol
  T/C: 97 % of control
endpoint: mean survival time, dose: 400.0 mg/kg/injection, schedule: Q04DX003 (ip), vehicle: saline + alcohol
  T/C: 97 % of control

## NC(CS)=NC1CCCCC1
endpoint: mean survival time, dose: 12.5 mg/kg/injection, schedule: Q04DX002 (ip), vehicle: saline with Tween-80
  T/C: 104 % of control
endpoint: mean survival time, dose: 25.0 mg/kg/injection, schedule: Q04DX002 (ip), vehicle: saline with Tween-80
  T/C: 96 % of control

## CC1(C)N=C(N)N=C(N)N1c1cccc(CC(=O)Nc2ccc(S(=O)(=O)F)cc2)c1
[7]
  T/C: 120 % of control
[8]
  T/C: 117 % of control
endpoint: mean survival time, dose: 300.0 mg/kg/injection, schedule: Q01DX009 (ip), vehicle: saline
  T/C: 120 % of control

## CCOC(=O)CCC(NC(=O)c1ccc(NCc2cnc3nc(N)nc(N)c3c2)cc1)C(=O)OCC (configuration not stated)
endpoint: median survival time, dose: 1.0 mg/kg/injection, schedule: Q01DX005 (ip), vehicle: saline with Tween-80
  T/C: 153 % of control
endpoint: median survival time, dose: 2.0 mg/kg/injection, schedule: Q01DX005 (ip), vehicle: saline with Tween-80
  T/C: 174 % of control

## O=C1/C(=N/O)Cc2ccccc21
[9]
  T/C: 97 % of control

## CC(N)CC(=O)NO (configuration not stated)
[10]
  T/C: 104 % of control
[11]
  T/C: 104 % of control
[12]
  T/C: 108 % of control

## O=C(Nc1cccc(C(F)(F)F)c1)c1cccc(C(=O)Nc2cccc(C(F)(F)F)c2)c1
[9]
  T/C: 92 % of control
endpoint: mean survival time, dose: 25.0 mg/kg/injection, schedule: Q01DX009 (ip), vehicle: saline with Tween-80
  T/C: 89 % of control
endpoint: mean survival time, dose: 50.0 mg/kg/injection, schedule: Q01DX009 (ip), vehicle: saline with Tween-80
  T/C: 89 % of control

## O=C(O)c1c(Cl)c(-c2c(Cl)c(C(=O)O)c(Cl)c([N+](=O)[O-])c2Cl)c(Cl)c([N+](=O)[O-])c1Cl
[1]
  T/C: 93 % of control
[2]
  T/C: 94 % of control
[3]
  T/C: 89 % of control

## O=C(O)CCOc1ccc([N+](=O)[O-])cc1
[13]
  T/C: 96 % of control
[14]
  T/C: 98 % of control
endpoint: mean survival time, dose: 400.0 mg/kg/injection, schedule: Q01DX009 (ip), vehicle: saline with Tween-80
  T/C: 94 % of control

## CN(Cc1cnc(N)c(C#N)n1)c1ccc(C(=O)NC(CCC(=O)OC(C)(C)C)C(=O)OC(C)(C)C)cc1 (configuration not stated)
endpoint: mean survival time, dose: 100.0 mg/kg/injection, schedule: Q04DX002 (ip), vehicle: saline with Tween-80
  T/C: 91 % of control
endpoint: mean survival time, dose: 200.0 mg/kg/injection, schedule: Q04DX002 (ip), vehicle: saline with Tween-80
  T/C: 91 % of control
endpoint: mean survival time, dose: 400.0 mg/kg/injection, schedule: Q04DX002 (ip), vehicle: saline with Tween-80
  T/C: 102 % of control

## CC1(C)Cc2ccccc2O1
[13]
  T/C: 104 % of control
[14]
  T/C: 91 % of control

## COC(=O)/C(Br)=C/N(Cc1ccccc1)Cc1ccccc1
endpoint: mean survival time, dose: 100.0 mg/kg/injection, schedule: Q01DX009 (ip), vehicle: saline sonified
  T/C: 101 % of control
[4]
  T/C: 94 % of control
endpoint: mean survival time, dose: 200.0 mg/kg/injection, schedule: Q01DX009 (ip), vehicle: saline sonified
  T/C: 101 % of control
[5]
  T/C: 93 % of control
endpoint: mean survival time, dose: 400.0 mg/kg/injection, schedule: Q01DX009 (ip), vehicle: saline sonified
  T/C: 103 % of control
[6]
  T/C: 96 % of control

## CCC(=O)OCC[N+](C)(C)C
[10]
  T/C: 100 % of control
[11]
  T/C: 96 % of control
[12]
  T/C: 96 % of control

## O=C1OC2CC1(O)CC(O)C2O (configuration not stated)
[1]
  T/C: 96 % of control
[2]
  T/C: 89 % of control
